Values of other authors as cited in US9592699B2, “Dampening fluid for digital lithographic printing” (Xerox Corporation, priority 2011, dated 2017).

Columns and labels:
[1] = not given; remark: listed apart in the source
[2] = not given; remark: listed apart in the source
[3] = not given; remark: listed apart in the source
[4] = not given; remark: listed apart in the source

Compound | Surface Tension at 25° C. [dynes/cm] | Kinematic Viscosity at 25° C. [1] [cSt] | Vapor Pressure at 25° C. [2] [mmHg] | Heat of Vaporization at boiling point [3] [kJ/kg] | Solubility in Water [4] [ppm] | surface tension | kinematic viscosity ([1]; 1 mm^2/sec)
C[Si](C)(C)O[Si](C)(C)O[Si](C)(C)C [(II-b), octamethyltrisiloxane] | 17.4 | 1 | 4 | 158 | – | – | –
C[Si]1(C)O[Si](C)(C)O[Si](C)(C)O[Si](C)(C)O1 [(III-a), octamethylcyclotetrasiloxane] | 18.4 | 2.3 | 1.5 | 133 | – | – | –
COC(F)(C(F)(F)C(F)(F)F)C(F)(C(F)(F)F)C(F)(F)F (centres unmarked) [(I-a), 1,1,1,2,2,3,4,5,5,5-decafluoro-3-methoxy-4-(trifluoromethyl)pentane] | 15 | 0.71 | 44.9 | 101.7 | – | – | –
C[Si](C)(C)O[Si](C)(O[Si](C)(C)C)O[Si](C)(C)C [(IV-a), methyltris(trimethylsiloxy)silane] | 16.8 | 1.5 | <10 | – | – | – | –
COC(F)(F)C(F)(F)C(F)(F)F [(I-f), 1-methoxyheptafluoropropane] | 12.4 | 0.32 | 484.5 | 142 | – | – | –
CC(OC(F)(F)C(F)C(F)(F)F)C(F)(F)C(F)C(F)(F)F (centres unmarked) [(I-c), 1,1,1,2,3,3-Hexafluoro-4-(1,1,2,3,3,3-hexafluoropropoxy)pentane] | 17.7 | 1.07 | – | 115.6 | <10 | – | –
O [Water, reference compound] | 72 | 1 | – | – | – | around 70 dynes/cm | about 1 centiStoke
C[Si](C)(C)O[Si](C)(C)C [(II-a), hexamethyldisiloxane] | 15.9 | 0.65 | 35 | 200.8 | – | – | –
CCOC(F)(C(F)(F)C(F)(F)C(F)(F)F)C(F)(C(F)(F)F)C(F)(F)F (centres unmarked) [(I-b), 3-ethoxy-1,1,1,2,3,4,4,5,5,6,6,6-dodecafluoro-2-(trifluoromethyl)hexane] | 16.2 | 0.77 | – | 88.5 | – | – | –
C[Si]1(C)O[Si](C)(C)O[Si](C)(C)O[Si](C)(C)O[Si](C)(C)O1 [(III-b), decamethylcyclopentasiloxane] | 18.0 | 3.9 | 1 | 157 | – | – | –
